# Results from patent publication US10689377B2 (Mirati Therapeutics, Inc., priority 2017, dated 2020).
# How the values were obtained:
# KRas G12C = KRas G12C (Homo sapiens, UniProt P01116, G12C); assay: Cellular inhibition of KRas G12C measured by Phospho-ERK in NCI-H358 cells; type: cell-based; conditions: pERK(Thr202/Tyr204) normalized with GAPDH, NCI-H358 cells, 3 hours; read-out: IC50
# Summary of the method: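 NCI-H358 cells treated 3 h with compound (0.5% DMSO final), then fixed and methanol-permeabilised. In-cell immunofluorescence measured pERK(Thr202/Tyr204) normalised to GAPDH as percent of DMSO control. IC50 from a 4-parameter dose-response fit.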
# [1] = In vitro stability in human whole blood; type: in vitro ADME; conditions: male, whole blood diluted to 50% with PBS, pH 7.4, human whole blood diluted to 50% with PBS, 5 μM, 37° C., 240-minute incubation, read-out: Compound Half-life
# From the text: Materials: The following reagents were used as received: acetonitrile (HPLC grade, Burdick & Jackson, Madison, Wis.), phosphate buffered saline (PBS), pH 7.4 (Sigma-Aldrich, Co., St. Louis, Mo.), water (HPLC grade, JT Baker, Phillipsburg, N.J.), DMSO (EM Science, Merck KGaA, Darmstadt, Germany) and isopropanol (IPA, reagent grade, EMD Chemicals, Gibbstown, N.J.). Propantheline and esmolol (Sigma-Aldrich) were used as the positive control compounds in the assay. Diazepam (Sigma-Aldrich) was used as an internal standard for quantitation. Human whole blood was obtained from BioIVT (Westbury, N.Y.) […]. All other reagents and solvents were of the highest analytical grade supplied by Sigma (St. Louis, Mo.) and were used as received.
# Blood Incubations: The in vitro stability of representative KRas G12C inhibitor compounds of the present invention in the presence whole blood was conducted in the following manner. Esmolol or propantheline, which are known to undergo ester hydrolysis by esterases in blood and plasma, were used as the positive controls in the assays. A 10 mM stock solution of propantheline, esmolol, or a compound of the present invention in DMSO was diluted to 500 μM with DMSO. Aliquots of whole blood (600 μL), in triplicate, were placed in the appropriate wells of a polypropylene 96-deep well plate (Axygen Scientific, Union City, Calif.). The blood was diluted to 50% using PBS, pH 7.4 (600 μL). The diluted blood was pre-incubated for 15 minutes at 37° C. Each well was dosed with 12 μL of the 500 μM DMSO stock simultaneously for a final test concentration of 5 μM. The plates were mixed at 600 rpm for 10 seconds on a plate shaker (IKA MTS 2/4 Digital Microtiter Shaker, VWR). Aliquots of 100 μL from each well of whole blood were transferred to three separate 96-deep well plates labeled 0, 60, or 240 minutes. At the end of each designated time point, the red blood cells were lysed with 100 μL of water, mixed at 600 rpm for one minute, and stopped with 800 μL of acetonitrile containing IS (0.625 μM diazepam). The plates were mixed on the plate shaker at 600 rpm for one minute and spun in a centrifuge at 2095×g for 7 minutes at room temperature using an Allegra benchtop centrifuge (Beckman Coulter, Fullerton, Calif.). Supernatant (100 μL) was transferred to a shallow 96-well plate (Costar) using a liquid sample handling system (Apricot, Perkin-Elmer, Boston, Mass.). The addition of 100 μL of water was added to each sample of supernatant for a final volume of 200 μL. The plates were sealed and the contents of each well were analyzed by LC-MS/MS.
# Analytical quantitation: The LC-MS/MS system was comprised of an HTS-PAL autosampler (Leap Technologies, Carrboro, N.C.), an HP1200 HPLC (Agilent, Palo Alto, Calif.), and an API4000 triple quadrupole mass spectrometer (PE Sciex, a division of Applied Biosystems, Foster City, Calif.). […] The total run time, including re-equilibration, for a single injection was 2 minutes. Mass spectrometric detection of the analytes was accomplished using the ESI ionization mode. Ion current was optimized during infusion of a stock solution of propantheline, esmolol, or the representative test compound. Analyte responses, including the IS were measured by multiple reaction monitoring (MRM) of transitions unique to each compound.
# Calculations: Data were acquired and peak areas were calculated for test compounds and the internal standard using Analyst 1.6.2 software (Sciex). The mean peak area ratios were calculated by averaging the peak area ratios (n=3) of each test compound and the IS for each sample.
# Peak area tables were exported to BioAssay Enterprise (CambridgeSoft, Cambridge, Mass.), where the average analyte-to-internal standard peak area ratios were used to calculate percent remaining (% REM) and half-life (t1/2). Percent remaining (f) was calculated by determining the ratio of the peak area ratio at each time point to the peak area ratio of the time-zero samples. […]
# Chain of KRas G12C (P01116 1-188 isoform P01116-2 G12C): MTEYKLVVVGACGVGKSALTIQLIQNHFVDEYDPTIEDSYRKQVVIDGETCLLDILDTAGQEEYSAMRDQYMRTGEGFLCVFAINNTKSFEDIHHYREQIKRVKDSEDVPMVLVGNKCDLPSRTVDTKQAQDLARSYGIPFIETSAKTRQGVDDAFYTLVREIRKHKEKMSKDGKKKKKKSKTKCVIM
SMILES,IC50 (KRas G12C) [nM],half-life at 5 µM [1] [h]
"Cc1cccc2cccc(N3CCc4c(nc(OC[C@@H]5CCCN5C)nc4N4CCN(C(=O)/C=C/C(F)F)[C@@H](CC#N)C4)C3)c12 [Example 495, 2-((S)-1-((E)-4,4-difluorobut-2-enoyl)-4-(7-(8-methylnaphthalen-1-yl)-2-(((S)-1-methylpyrrolidin-2-yl)methoxy)-5,6,7,8-tetrahydropyrido[3,4-d]pyrimidin-4-yl)piperazin-2-yl)acetonitrile]",0.1 to 1000,3.33 to 16.7
"Cc1cccc2cccc(N3CCc4c(nc(OC[C@@H]5CCCN5C)nc4N4CCN(C(=O)/C=C\C#N)[C@@H](CC#N)C4)C3)c12 [Example 502, (Z)-4-((S)-2-(cyanomethyl)-4-(7-(8-methylnaphthalen-1-yl)-2-(((S)-1-methylpyrrolidin-2-yl)methoxy)-5,6,7,8-tetrahydropyrido[3,4-d]pyrimidin-4-yl)piperazin-1-yl)-4-oxobut-2-enenitrile]",0.1 to 1000,3.33 to 16.7
"C=C(C(=O)N1CCN(c2nc(OC[C@@H]3CCCN3C)nc3c2CCN(c2cccc4cccc(Cl)c24)C3)C[C@@H]1CC#N)C(F)(F)F [Example 504, 2-[(2S)-4-[7-(8-chloro-1-naphthyl)-2-[[(2S)-1-methylpyrrolidin-2-yl]methoxy]-6,8-dihydro-5H-pyrido[3,4-d]pyrimidin-4-yl]-1-[2-(trifluoromethyl)prop-2-enoyl]piperazin-2-yl]acetonitrile]",0.1 to 1000,≤ 3.33
C=C(F)C(=O)N1CCN(c2nc(OC[C@@H]3CCCN3C)nc3c2CCN(c2cccc4cccc(C)c24)C3)C[C@@H]1CC#N [Example 507],0.1 to 1000,> 33.3
Cc1cccc2cccc(N3CCc4c(nc(OC[C@@H]5CCCN5C)nc4N4CCN(C(=O)/C=C/Cn5cccn5)[C@@H](CC#N)C4)C3)c12 [Example 509],0.1 to 1000,> 33.3
"COC/C=C/C(=O)N1CCN(c2nc(OC[C@@H]3CCCN3C)nc3c2CCN(c2cccc4cccc(C)c24)C3)C[C@@H]1CC#N [Example 511, 2-((S)-1-((E)-4-methoxybut-2-enoyl)-4-(7-(8-methylnaphthalen-1-yl)-2-(((S)-1-methylpyrrolidin-2-yl)methoxy)-5,6,7,8-tetrahydropyrido[3,4-d]pyrimidin-4-yl)piperazin-2-yl)acetonitrile]",0.1 to 1000,> 33.3
"CN1CCC[C@H]1COc1nc2c(c(N3CCN(C(=O)/C=C/CO)[C@@H](CC#N)C3)n1)CCN(c1cccc3cccc(Cl)c13)C2 [Example 513, 2-[(2S)-4-[7-(8-chloro-1-naphthyl)-2-[[(2S)-1-methylpyrrolidin-2-yl]methoxy]-6,8-dihydro-5H-pyrido[3,4-d]pyrimidin-4-yl]-1-[(E)-4-hydroxybut-2-enoyl]piperazin-2-yl]acetonitrile]",0.1 to 1000,16.7 to 33.3
"Cc1cccc2cccc(N3CCc4c(nc(OC[C@H]5CCCN5C)nc4N4CCN(C(=O)/C=C/CO)[C@@H](CC#N)C4)C3)c12 [Example 517, 2-((S)-1-((E)-4-hydroxybut-2-enoyl)-4-(7-(8-methylnaphthalen-1-yl)-2-(((R)-1-methylpyrrolidin-2-yl)methoxy)-5,6,7,8-tetrahydropyrido[3,4-d]pyrimidin-4-yl)piperazin-2-yl)acetonitrile]",0.1 to 1000,16.7 to 33.3

# Results, then the compound that gave them:
IC50 (KRas G12C) [nM],half-life at 5 µM [1] [h],SMILES
0.1 to 1000,> 33.3,"Cc1cccc2cccc(N3CCc4c(nc(OC[C@@H]5CCCN5C)nc4N4CCN(C(=O)/C=C/CCl)[C@@H](CC#N)C4)C3)c12 [Example 498, 2-((S)-1-((E)-4-chlorobut-2-enoyl)-4-(7-(8-methylnaphthalen-1-yl)-2-(((S)-1-methylpyrrolidin-2-yl)methoxy)-5,6,7,8-tetrahydropyrido[3,4-d]pyrimidin-4-yl)piperazin-2-yl)acetonitrile]"
0.1 to 1000,≤ 3.33,"Cc1cccc2cccc(N3CCc4c(nc(OC[C@@H]5CCCN5C)nc4N4CCN(C(=O)/C=C/C#N)[C@@H](CC#N)C4)C3)c12 [Example 501, (E)-4-((S)-2-(cyanomethyl)-4-(7-(8-methylnaphthalen-1-yl)-2-(((S)-1-methylpyrrolidin-2-yl)methoxy)-5,6,7,8-tetrahydropyrido[3,4-d]pyrimidin-4-yl)piperazin-1-yl)-4-oxobut-2-enenitrile]"
0.1 to 1000,16.7 to 33.3,"Cc1cccc2cccc(N3CCc4c(nc(OC[C@@H]5CCCN5C)nc4N4CCN(C(=O)/C=C/CF)[C@@H](CC#N)C4)C3)c12 [Example 506, 2-((S)-1-((E)-4-fluorobut-2-enoyl)-4-(7-(8-methylnaphthalen-1-yl)-2-(((S)-1-methylpyrrolidin-2-yl)methoxy)-5,6,7,8-tetrahydropyrido[3,4-d]pyrimidin-4-yl)piperazin-2-yl)acetonitrile]"
0.1 to 1000,16.7 to 33.3,"Cc1cccc2cccc(N3CCc4c(nc(OC[C@@H]5CCCN5C)nc4N4CCN(C(=O)/C=C/CO)[C@@H](CC#N)C4)C3)c12 [Example 510, 2-((S)-1-((E)-4-hydroxybut-2-enoyl)-4-(7-(8-methylnaphthalen-1-yl)-2-(((S)-1-methylpyrrolidin-2-yl)methoxy)-5,6,7,8-tetrahydropyrido[3,4-d]pyrimidin-4-yl)piperazin-2-yl)acetonitrile]"
> 1000,> 33.3,"C=C(OC)C(=O)N1CCN(c2nc(OC[C@@H]3CCCN3C)nc3c2CCN(c2cccc4cccc(C)c24)C3)C[C@@H]1CC#N [Example 512, 2-[(2S)-1-(2-methoxyprop-2-enoyl)-4-[7-(8-methyl-1-naphthyl)-2-[[(2S)-1-methylpyrrolidin-2-yl]methoxy]-6,8-dihydro-5H-pyrido[3,4-d]pyrimidin-4-yl]piperazin-2-yl]acetonitrile]"
> 1000,> 33.3,"C=C(OC)C(=O)N1CCN(c2nc(OC[C@@H]3CCCN3C)nc3c2CCN(c2cccc4cccc(Cl)c24)C3)C[C@@H]1CC#N [Example 514, 2-[(2S)-4-[7-(8-chloro-1-naphthyl)-2-[[(2S)-1-methylpyrrolidin-2-yl]methoxy]-6,8-dihydro-5H-pyrido[3,4-d]pyrimidin-4-yl]-1-(2-methoxyprop-2-enoyl)piperazin-2-yl] acetonitrile]"
0.1 to 1000,> 33.3,"C=C(F)C(=O)N1CCN(c2nc(OC[C@H]3CCCN3C)nc3c2CCN(c2cccc4cccc(C)c24)C3)C[C@@H]1CC#N [Example 516, 2-((S)-1-(2-fluoroacryloyl)-4-(7-(8-methylnaphthalen-1-yl)-2-(((R)-1-methylpyrrolidin-2-yl)methoxy)-5,6,7,8-tetrahydropyrido[3,4-d]pyrimidin-4-yl)piperazin-2-yl)acetonitrile]"
0.1 to 1000,> 33.3,"COC/C=C/C(=O)N1CCN(c2nc(OC[C@@H]3CCCN3C)nc3c2CCN(c2cccc4cccc(Cl)c24)C3)C[C@@H]1CC#N [Example 524, 2-((S)-4-(7-(8-chloronaphthalen-1-yl)-2-(((S)-1-methylpyrrolidin-2-yl)methoxy)-5,6,7,8-tetrahydropyrido[3,4-d]pyrimidin-4-yl)-1-((E)-4-methoxybut-2-enoyl)piperazin-2-yl)acetonitrile]"
